ChEMBL document CHEMBL4421720, “Tetrahydropyridopyrazines modulators of gpr6” (2016)

Molecular target: G-protein coupled receptor 6 (Homo sapiens, UniProt P46095)
Experiment: Modulation activity at GPR6 receptor (unknown origin) expressed in CHO-K1 cells assessed as inhibition of constitutive cAMP activity incubated for 45 mins by Perkin Elmer Lance HTRF Ultrac-AMP assay
Type: functional, cell-based

Chain of G-protein coupled receptor 6 (P46095 whole entry): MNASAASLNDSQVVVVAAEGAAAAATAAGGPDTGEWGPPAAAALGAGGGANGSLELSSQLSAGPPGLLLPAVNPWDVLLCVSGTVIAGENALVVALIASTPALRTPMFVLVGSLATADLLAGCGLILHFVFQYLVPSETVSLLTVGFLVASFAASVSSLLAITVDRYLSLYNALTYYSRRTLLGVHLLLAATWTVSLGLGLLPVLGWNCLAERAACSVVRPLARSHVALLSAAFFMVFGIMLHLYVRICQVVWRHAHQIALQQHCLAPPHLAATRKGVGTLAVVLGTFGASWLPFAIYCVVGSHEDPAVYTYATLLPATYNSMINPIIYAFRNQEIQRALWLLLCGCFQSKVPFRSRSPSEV

IC50 [µM] | IC50 (cho-k1) [µM] | Compound
13.8 |  | CC(=O)N1CCc2nc(N3CCC(C(=O)c4cc(Cl)ccc4F)CC3)c(NC(C)C)nc2C1
 | 13.7 | CC(C)Nc1nc2c(nc1N1CCC(C(=O)c3cc(Cl)ccc3F)CC1)CCN(C)C2
